Data on 29 substances can be found in US20230144436A1, “MUSCLE TARGETING COMPLEXES AND USES THEREOF FOR TREATING MYOTONIC DYSTROPHY” (Dyne Therapeutics, Inc., priority 2020, published 2023).

The data set relates to DMPK. Briefly: DMPK knockdown by transfected antisense oligonucleotides in DM1 C15 myotubes at 0.5 nM and 50 nM. The settings on record: 72 hours; for Normalized DMPK Remaining: relative to vehicle control = 1.00. It counts as cell-based. The protocol: Two hundred and thirty-six oligonucleotides for targeting DMPK were generated using in silico analysis. Each individual oligonucleotide was evaluated for their ability to target DMPK in cellulo at two doses—0.5 nM (low dose) and 50 nM (high dose).
Briefly, DM1 C15 immortalized myoblasts were cultured in T-75 flasks until near confluency (˜80% confluent). Myoblasts were then disrupted with trypsin and seeded into 96-well microplates at a density of 50,000 cells/well. Cells were allowed to recover overnight before the growth media was washed out and replaced with a no-serum media to induce differentiation into myotubes. Differentiation proceeded for seven days prior to treatment with DMPK-targeting oligonucleotides.
On day seven following induction of differentiation, DM1 C15 myotubes were transfected with an individual oligonucleotide using 0.3 μL of Lipofectamine MessengerMax per well. All oligonucleotides were tested at both 0.5 nM and 50 nM final concentrations in biological triplicates. After treatment with oligonucleotides, cells were incubated for 72 hours prior to being harvested for total RNA. cDNA was synthesized from the total RNA extracts and qPCR was performed to determine expression levels of DMPK in technical quadruplicate. All qPCR data were analyzed using a traditional […] method and were normalized to a plate-based negative control that comprised cells treated with vehicle control (0.3 μL/well Lipofectamine MessengerMax without any oligonucleotide). Results from these experiments are shown in Table 10. ‘Normalized DMPK Remaining’ for each antisense oligonucleotide in Table 10 refers to the expression level of DMPK in cell treated with said antisense oligonucleotide relative to the negative control that comprised cells treated with vehicle control (wherein the expression level of the negative control has been normalized to equal 1.00)

[1] abbreviates: 0.5 nM oligonucleotide, qPCR, relative to vehicle control.
Setting [2] is: 50 nM oligonucleotide, qPCR, relative to vehicle control.

In the case of “393 (UUGGCCGGCGUGGGCCACCA; chemistry not given here) [compound 393]”, for the setting “0.5 nM oligonucleotide”, the “Percent DMPK Reduction” value is on record as -3.19% and the “Normalized DMPK Remaining” value was determined as 1.03. Also, where the note is “50 nM oligonucleotide”, the “Percent DMPK Reduction” value is recorded as 44.37% and the “Normalized DMPK Remaining” value is 0.56.

For the substance “442 (AUGUUGUCGGGUUUGAUGUC; chemistry not given here) [compound 442]”, the “Percent DMPK Reduction” value turned out to be 16.93% (0.5 nM oligonucleotide) and 52.83% (50 nM oligonucleotide). Further, the “Normalized DMPK Remaining” value came out at 0.83 (0.5 nM oligonucleotide) and 0.47 (50 nM oligonucleotide).

As for “296 (AUCUCCGCCAGGUAGAAGCG; chemistry not given here) [compound 296]”, the “Percent DMPK Reduction” value by setting is: under setting [1], 42.37%; under setting [2], 65.50%. The “Normalized DMPK Remaining” value is, setting by setting: (0.5 nM oligonucleotide, qPCR) 0.58; (50 nM oligonucleotide, qPCR) 0.35.

Turning to “445 (GAGGGCCUUUUAUUCGCGAG; chemistry not given here) [compound 445]”, under “0.5 nM oligonucleotide”, the “Percent DMPK Reduction” value came to 8.23% and the “Normalized DMPK Remaining” value is recorded as 0.92. Moreover, where the note is “50 nM oligonucleotide”, the “Percent DMPK Reduction” value was 62.21% and the “Normalized DMPK Remaining” value was 0.38.

For “420 (ACAAUCUCCGCCAGGUAGAA; chemistry not given here) [compound 420]”, for the setting “0.5 nM oligonucleotide”, the “Percent DMPK Reduction” value was 19.09% and the “Normalized DMPK Remaining” value was determined as 0.81. Also, for the setting “50 nM oligonucleotide”, the “Percent DMPK Reduction” value is on record as 49.75% and the “Normalized DMPK Remaining” value was determined as 0.50.

Turning to “281 (ACAGCGGUCCAGCAGGAUGU; chemistry not given here) [compound 281]”, the “Percent DMPK Reduction” value is, setting by setting: under setting [1], 19.94%; under setting [2], 55.14%. In addition, the “Normalized DMPK Remaining” value by setting is: (0.5 nM oligonucleotide, qPCR) 0.80; (50 nM oligonucleotide, qPCR) 0.45.

On to “471 (UCGGCCAGGCGGAUGUGGCC; chemistry not given here) [compound 471]”, for which the “Percent DMPK Reduction” value runs as follows: (0.5 nM oligonucleotide) 26.53%; (50 nM oligonucleotide) 83.04%. The “Normalized DMPK Remaining” value (0.5 nM oligonucleotide) is recorded as 0.73 and the “Normalized DMPK Remaining” value (50 nM oligonucleotide) amounted to 0.17.

Consider “468 (CGAGAGCAGCGCAAGUGAGG; chemistry not given here) [compound 468]”, for which, for the setting “0.5 nM oligonucleotide”, the “Percent DMPK Reduction” value is recorded as -2.19% and the “Normalized DMPK Remaining” value stood at 1.02. For the same substance, for the setting “50 nM oligonucleotide”, the “Percent DMPK Reduction” value is on record as 37.11% and the “Normalized DMPK Remaining” value is listed as 0.63.

With “387 (UCGAAGUUGCAUGUGUCGGU; chemistry not given here) [compound 387]”, where the note is “0.5 nM oligonucleotide”, the “Percent DMPK Reduction” value is recorded as 22.96% and the “Normalized DMPK Remaining” value worked out at 0.77. Further, where the note is “50 nM oligonucleotide”, the “Percent DMPK Reduction” value was found to be 58.15% and the “Normalized DMPK Remaining” value was determined as 0.42.

For “407 (CCAAACUUGCTCAGCAGUGU; chemistry not given here) [compound 407]”, where the note is “0.5 nM oligonucleotide”, the “Percent DMPK Reduction” value is given as 23.64% and the “Normalized DMPK Remaining” value is 0.76. In addition, for the setting “50 nM oligonucleotide”, the “Percent DMPK Reduction” value was 57.70% and the “Normalized DMPK Remaining” value was 0.42.

Regarding “311 (CUCAGCCUCUGCCGCAGGGA; chemistry not given here) [compound 311]”, the “Percent DMPK Reduction” value runs as follows: under setting [1], 17.86%; under setting [2], 79.58%. In addition, the “Normalized DMPK Remaining” value worked out at 0.82 (0.5 nM oligonucleotide, qPCR) and 0.20 (50 nM oligonucleotide, qPCR).

Consider “403 (UCUCCGCCAGGUAGAAGCGC; chemistry not given here) [compound 403]”, for which the “Percent DMPK Reduction” value runs as follows: (0.5 nM oligonucleotide) 19.59%; (50 nM oligonucleotide) 66.52%. Besides, the “Normalized DMPK Remaining” value reads like this: (0.5 nM oligonucleotide) 0.80; (50 nM oligonucleotide) 0.33.

Consider “369 (CAUGACAAUCUCCGCCAGGU; chemistry not given here) [compound 369]”, for which the “Percent DMPK Reduction” value by setting is: under setting [1], 29.45%; under setting [2], 70.52%. Besides, the “Normalized DMPK Remaining” value is, setting by setting: (0.5 nM oligonucleotide, qPCR) 0.71; (50 nM oligonucleotide, qPCR) 0.29.

Take “475 (GCCUCAGCCUGGCCGAAAGA; chemistry not given here) [compound 475]”: where the note is “0.5 nM oligonucleotide”, the “Percent DMPK Reduction” value is reported as -4.82% and the “Normalized DMPK Remaining” value stood at 1.05. Also, where the note is “50 nM oligonucleotide”, the “Percent DMPK Reduction” value amounted to 63.11% and the “Normalized DMPK Remaining” value is reported as 0.37.

For “283 (GCCAAAGAAGAAGGGAUGUG; chemistry not given here) [compound 283]”, the “Percent DMPK Reduction” value by setting is: under setting [1], 24.87%; under setting [2], 56.19%. The “Normalized DMPK Remaining” value is on record as 0.75 (0.5 nM oligonucleotide, qPCR) and 0.44 (50 nM oligonucleotide, qPCR).

Take “302 (CCACGUAAUACUCCAUGACC; chemistry not given here) [compound 302]”: the “Percent DMPK Reduction” value runs as follows: under setting [1], 20.84%; under setting [2], 50.06%. For the same substance, the “Normalized DMPK Remaining” value (0.5 nM oligonucleotide, qPCR) turned out to be 0.79 and the “Normalized DMPK Remaining” value (50 nM oligonucleotide, qPCR) is 0.50.

As to “334 (CCAUGACAAUCUCCGCCAGG; chemistry not given here) [compound 334]”, the “Percent DMPK Reduction” value worked out at 34.53% under setting [1] and 76.46% under setting [2]. For the same substance, the “Normalized DMPK Remaining” value is, setting by setting: (0.5 nM oligonucleotide, qPCR) 0.65; (50 nM oligonucleotide, qPCR) 0.24.

With “368 (CAGCAGUGUCAGCAGGUCCC; chemistry not given here) [compound 368]”, the “Percent DMPK Reduction” value under setting [1] came out at 25.67% and the “Percent DMPK Reduction” value under setting [2] was determined as 51.97%. Besides, the “Normalized DMPK Remaining” value (0.5 nM oligonucleotide, qPCR) was determined as 0.74 and the “Normalized DMPK Remaining” value (50 nM oligonucleotide, qPCR) is 0.48.

As to “335 (UCCCCAAACUUGCUCAGCAG; chemistry not given here) [compound 335]”, the “Percent DMPK Reduction” value came out at 5.73% under setting [1] and 44.67% under setting [2]. In addition, the “Normalized DMPK Remaining” value turned out to be 0.94 (0.5 nM oligonucleotide, qPCR) and 0.55 (50 nM oligonucleotide, qPCR).

On to “429 (GCGGUCCAGCAGGAUGUUGU; chemistry not given here) [compound 429]”, for which, for the setting “0.5 nM oligonucleotide”, the “Percent DMPK Reduction” value is 38.84% and the “Normalized DMPK Remaining” value is listed as 0.61. Also, where the note is “50 nM oligonucleotide”, the “Percent DMPK Reduction” value amounted to 83.64% and the “Normalized DMPK Remaining” value was 0.16.

As to “271 (CCCACGUAAUACUCCAUGAC; chemistry not given here) [compound 271]”, the “Percent DMPK Reduction” value was found to be 28.21% under setting [1] and 45.94% under setting [2]. The “Normalized DMPK Remaining” value (0.5 nM oligonucleotide, qPCR) is given as 0.72 and the “Normalized DMPK Remaining” value (50 nM oligonucleotide, qPCR) came out at 0.54.

With “305 (UGAUCUUCAUGGCAUACACC; chemistry not given here) [compound 305]”, the “Percent DMPK Reduction” value is, setting by setting: under setting [1], 27.70%; under setting [2], 89.68%. For the same substance, the “Normalized DMPK Remaining” value is, setting by setting: (0.5 nM oligonucleotide, qPCR) 0.72; (50 nM oligonucleotide, qPCR) 0.10.

In the case of “453 (CAGCAGGAUGUUGUCGGGUU; chemistry not given here) [compound 453]”, where the note is “0.5 nM oligonucleotide”, the “Percent DMPK Reduction” value was 34.18% and the “Normalized DMPK Remaining” value came out at 0.66. Further, for the setting “50 nM oligonucleotide”, the “Percent DMPK Reduction” value is 84.54% and the “Normalized DMPK Remaining” value was found to be 0.15.

In the case of “424 (CCAUUCACCAACACGUCCCU; chemistry not given here) [compound 424]”, for the setting “0.5 nM oligonucleotide”, the “Percent DMPK Reduction” value came out at 39.26% and the “Normalized DMPK Remaining” value worked out at 0.61. Further, where the note is “50 nM oligonucleotide”, the “Percent DMPK Reduction” value came to 86.83% and the “Normalized DMPK Remaining” value is 0.13.

On to “419 (UGCGGAUGGCCUCCAUCUCC; chemistry not given here) [compound 419]”, for which, where the note is “0.5 nM oligonucleotide”, the “Percent DMPK Reduction” value came out at 40.15% and the “Normalized DMPK Remaining” value stood at 0.60. Moreover, where the note is “50 nM oligonucleotide”, the “Percent DMPK Reduction” value turned out to be 84.43% and the “Normalized DMPK Remaining” value was found to be 0.16.

On to “416 (GCCUCGCGUAGUUGACUGGC; chemistry not given here) [compound 416]”, for which the “Percent DMPK Reduction” value runs as follows: (0.5 nM oligonucleotide) 12.98%; (50 nM oligonucleotide) 91.10%. The “Normalized DMPK Remaining” value (0.5 nM oligonucleotide) is on record as 0.87 and the “Normalized DMPK Remaining” value (50 nM oligonucleotide) is 0.09.

Regarding “287 (GCCAUCUCGGCCGGAAUCCG; chemistry not given here) [compound 287]”, the “Percent DMPK Reduction” value turned out to be 18.56% under setting [1] and 86.39% under setting [2]. Also, the “Normalized DMPK Remaining” value amounted to 0.81 (0.5 nM oligonucleotide, qPCR) and 0.14 (50 nM oligonucleotide, qPCR).

“451 (CAGGAUGUUGUCGGGUUUGA; chemistry not given here) [compound 451]”: for the setting “0.5 nM oligonucleotide”, the “Percent DMPK Reduction” value amounted to 17.17% and the “Normalized DMPK Remaining” value worked out at 0.83. For the same substance, for the setting “50 nM oligonucleotide”, the “Percent DMPK Reduction” value is given as 79.31% and the “Normalized DMPK Remaining” value amounted to 0.21.

In the case of “462 (UCUGCCUCGCGUAGUGACU; chemistry not given here) [compound 462]”, for the setting “0.5 nM oligonucleotide”, the “Percent DMPK Reduction” value is on record as 3.53% and the “Normalized DMPK Remaining” value was found to be 0.96. Further, under “50 nM oligonucleotide”, the “Percent DMPK Reduction” value came out at 86.86% and the “Normalized DMPK Remaining” value is 0.13.
